Literature values, collected in US20110086074A1, “COMBINATIONS OF NIACIN AND AN OXICAM” (DR. REDDY'S LABORATORIES LTD., priority 2008, published 2011).

Experiments:
[1] = n-octanol/pH 7.4 buffer

Solubility in methanol (methanol)	Solubility in water	Apparent partition coefficient [1]	SMILES	Solubility in strong acids and bases (strong acids and bases, compared with water)
very slightly soluble in methanol	practically insoluble in water	0.1	Cc1cnc(NC(=O)C2=C(O)c3ccccc3S(=O)(=O)N2C)s1 [Meloxicam, 4-hydroxy-2-methyl-N-(5-methyl-2-thiazolyl)-2H-1,2-benzothiazine-3-carboxamide-1,1-dioxide]	higher solubility observed in strong acids and bases
	very soluble in water		O=C(O)c1cccnc1 [Niacin, 3-pyridinecarboxylic acid]	
